In US10981932B2, “Macrocyclic indole derivatives” (Bayer Aktiengesellschaft, priority 2016, dated 2021):
Where two headings read alike, the source gives them in different places.

What was measured:
[1] = tested on: SUDHL10; experiment: Induction of cytotoxicity (CellTiter-Glo, 5 h), SUDHL10
[2] = tested on: SUDHL5; experiment: Induction of caspase-3/7 activity (Caspase-Glo 3/7), SUDHL5; assay type: cell-based; conditions: caspase-3/7 induction, SUDHL5 cells, 3 h treatment, median
In short: (§1)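 DLBCL lines SUDHL5 and SUDHL10 treated with compounds for 3 h at 37 °C; caspase-3/7 activity read by Caspase-Glo 3/7 luminescence. Medium-only background subtracted; EC50 fitted with bottom fixed at 1 and top fixed at the reference compound's maximal induction.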

[3] = tested on: SUDHL10; experiment: Anti-proliferative effect (CellTiter-Glo, 72 h), SUDHL10; assay type: cell-based; conditions: SUDHL10 cells, antiproliferation, 72 h incubation, median, read-out: Antiproli SUDHL10 [M] (median)
In short: (§2)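 72 h compound treatment, 37 °C humidified; CellTiter-Glo added, 10 min incubation, luminescence read; day 0 plate read in parallel for baseline.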

[4] = tested on: SUDHL5; experiment: Induction of cytotoxicity (CellTiter-Glo, 5 h), SUDHL5
[5] = tested on: A2780; experiment: Anti-proliferative effect (CellTiter-Glo, 72 h), A2780; assay type: cell-based; conditions: A2780 cells, median, read-out: IC50 antiproliferation assay A2780 [M] (median)
In short: as §2

[6] = tested on: OPM2; experiment: Anti-proliferative effect (CellTiter-Glo, 72 h), OPM2; assay type: cell-based; conditions: OPM2 cells, median, read-out: IC50 antiproliferation assay OPM2 [M] (median)
Description: Assessment of the Anti-Proliferative Effect of Compounds in Different Cell Lines
The impact of compounds on the proliferation of different cell lines was assessed using the CellTiter-Glo® Luminescent Cell Viability reagent from Promega (G7573). Of note, SUDHL10 and SUDHL5 (DLBCL), NCI-H929 (Multiple Myeloma), A2780 (ovarian carcinoma) as well as MV-4-11(AML) cells are sensitive to MCL-1 inhibition.
In parallel, cells were plated in a reference (day 0) plate for time zero determination.
Rim wells were excluded. The cells were incubated for 72 h hours in a humidified incubator at 37° C. The day 0 plate was measured by adding 30 μl/well of CTG solution (CellTiter-Glo® Luminescent Cell Viability reagent, Promega G7573) to time zero wells in the reference plate followed by a 10 minutes incubation and luminescence reading at 0.1 ms, using the PHERAstar FS microplate reader (BMG Labtech).
After 72 h incubation, the treated plates were measured in the same way as the day 0 plate mentioned above.

[7] = tested on: SUDHL10; experiment: Induction of caspase-3/7 activity (Caspase-Glo 3/7), SUDHL10; assay type: cell-based; conditions: caspase-3/7 induction, SUDHL10 cells, 3 h treatment, median
In short: as §1

[8] = biological target: MCL-1 (Homo sapiens, UniProt Q07820); experiment: Protein-protein interaction assay MCL-1/Noxa BH3 peptide (MCL-1 assay), TR-FRET; assay type: binding; conditions: MBP-MCL-1 / Noxa BH3-derived peptide, median
In short: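 IC50 came from a 4-parameter fit of the normalized 665/620 nm TR-FRET ratio (anti-MBP Eu-cryptate/streptavidin-XL665). Compounds (0.1 nM–20 μM, duplicates) were preincubated 10 min at 22 °C with 1 nM MBP-MCL-1 in pH 7 Tris/NaCl/KF buffer, then read after 1 h at 22 °C plus overnight at 4 °C.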

[9] = Homo sapiens, SU-DHL10, 5 h, read-out: Cytotox SUDHL10 [M] (median), SUDHL10 cells, cytotoxicity induction, CellTiter-Glo, 5 h incubation, median
[10] = Homo sapiens, SU-DHL-5, 5 h, read-out: Cytotox SUDHL5 [M] (median), SUDHL5 cells, cytotoxicity induction, CellTiter-Glo, 5 h incubation, median

Chain of MCL-1 (Q07820 whole entry): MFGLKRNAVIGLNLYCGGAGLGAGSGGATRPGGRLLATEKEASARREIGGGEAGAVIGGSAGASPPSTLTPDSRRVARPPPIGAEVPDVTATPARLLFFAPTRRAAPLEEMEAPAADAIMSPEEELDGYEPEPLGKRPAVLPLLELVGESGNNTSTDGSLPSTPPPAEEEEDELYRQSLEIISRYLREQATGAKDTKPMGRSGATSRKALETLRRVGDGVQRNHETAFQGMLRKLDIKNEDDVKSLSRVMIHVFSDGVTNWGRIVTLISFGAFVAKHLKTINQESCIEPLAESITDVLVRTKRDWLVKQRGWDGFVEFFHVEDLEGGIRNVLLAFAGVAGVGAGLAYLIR

Structure (SMILES) | EC50 ([2]; Homo sapiens, SU-DHL-5, 3 h) | IC50 ([3]; Homo sapiens, SU-DHL10, 72 h) | IC50 ([5]; Homo sapiens, A2780, 72 h) | EC50 ([7]; Homo sapiens, SU-DHL10, 3 h) | IC50 [8] | EC50 [2] | IC50 [3] | IC50 [5] | EC50 [7] | IC50 [1, 9] | IC50 [4, 10] | IC50 ([6]; Homo sapiens, OPM-2, 72 h) | IC50 ([1]; read-out: Cytotox SUDHL10 [M] (median), SUDHL10 cells, cytotoxicity induction, CellTiter-Glo, 5 h incubation, median) | IC50 ([4]; read-out: Cytotox SUDHL5 [M] (median), SUDHL5 cells, cytotoxicity induction, CellTiter-Glo, 5 h incubation, median) | IC50 [6]
Cc1cc(OCCCc2c(C(=O)O)n3c4c(cccc24)-c2c(C)nn(C)c2COCCC3)cc(C)c1Cl (racemic) [Example 013, (rac)-1-[3-(4-chloro-3,5-dimethylphenoxy)propyl]-9,11-dimethyl-5,6,8,9-tetrahydro-4H-pyrazolo[4′,3′:8,9][1,5]oxazecino[7,6,5-hi]indole-2-carboxylic Acid] | > 33 µM | 4.83e-06 M | 3.27e-05 M | > 33 µM | 0.0345 µM | – | – | – | – | > 3.3e-05 M | > 3.3e-05 M | > 3.3e-05 M | – | – | –
CN1CCCn2c(C(=O)O)c(CCCOc3cccc4ccccc34)c3cccc(c32)-c2c(CNCC(F)(F)F)nn(C)c2C1 (racemic) [Example 129, (rac)-7,9-dimethyl-1-[3-(naphthalen-1-yloxy)propyl]-11-{[(2,2,2-trifluoroethyl)amino]methyl}-4,5,6,7,8,9-hexahydropyrazolo[3′,4′:7,8][1,5]diazecino[9,10,1-hi]indole-2-carboxylic Acid (Racemate)] | > 33 µM | 6.99e-06 M | 1.7e-05 M | > 33 µM | 0.0222 µM | – | – | – | – | > 3.3e-05 M | > 3.3e-05 M | > 3.3e-05 M | – | – | –
COc1cc2cc(c1)-c1cccc3c(CCCOc4cccc5ccccc45)c(C(=O)O)n(c13)CCCCCO2 (racemic) [Example 1-122, (rac)-12-Methoxy-1-[3-(naphthalen-1-yloxy)propyl]-5,6,7,8-tetrahydro-4H-10,14-(metheno)[1,7]oxazacyclotetradecino[9,8,7-hi]indole-2-carboxylic Acid] | > 33 µM | > 3.3e-05 M | 2.8e-05 M | > 33 µM | 6.88 µM | – | – | – | – | > 3.3e-05 M | > 3.3e-05 M | 2.77e-05 M | – | – | –
Cc1nn(C)c2c1-c1cccc3c(CCCOc4cccc5ccccc45)c(C(=O)O)n(c13)CCN(c1ccccc1)C2 (racemic) [Example 1-101, (rac)-8,10-Dimethyl-1-[3-(1-naphthyloxy)propyl]-6-phenyl-5,6,7,8-tetrahydro-4H-pyrazolo[3′,4′:6,7][1,4]diazonino[8,9,1-hi]indole-2-carboxylic Acid] | > 33 µM | 1.05e-05 M | 1.97e-05 M | > 33 µM | 0.319 µM | – | – | – | – | > 3.3e-05 M | > 3.3e-05 M | > 3.3e-05 M | – | – | –
Cn1ncc2c1COCCCCn1c(C(=O)O)c(CCCOc3cccc4ccccc34)c3cccc-2c31 (racemic) [Example 128, (rac)-1-methyl-7-[3-(naphthalen-1-yloxy)propyl]-1,10,11,12,13,15-hexahydropyrazolo[4′,3′:9,10][1,6]oxazacycloundecino[8,7,6-hi]indole-8-carboxylic Acid] | > 33 µM | 1.29e-05 M | 3.04e-05 M | > 33 µM | 0.0403 µM | – | – | – | – | > 3.3e-05 M | > 3.3e-05 M | > 3.3e-05 M | – | – | –

Second part, led by results:

EC50 ([2]; Homo sapiens, SU-DHL-5, 3 h) | IC50 ([3]; Homo sapiens, SU-DHL10, 72 h) | IC50 ([5]; Homo sapiens, A2780, 72 h) | EC50 ([7]; Homo sapiens, SU-DHL10, 3 h) | IC50 [8] | EC50 [2] | IC50 [3] | IC50 [5] | EC50 [7] | Structure (SMILES) | IC50 [1, 9] | IC50 [4, 10] | IC50 ([6]; Homo sapiens, OPM-2, 72 h) | IC50 ([1]; read-out: Cytotox SUDHL10 [M] (median), SUDHL10 cells, cytotoxicity induction, CellTiter-Glo, 5 h incubation, median) | IC50 ([4]; read-out: Cytotox SUDHL5 [M] (median), SUDHL5 cells, cytotoxicity induction, CellTiter-Glo, 5 h incubation, median) | IC50 [6]
> 33 µM | > 3.3e-05 M | > 3.3e-05 M | > 33 µM | 0.495 µM | – | – | – | – | Cc1nn(C)c2c1-c1cccc3c(CCCOc4ccccc4)c(C(=O)O)n(c13)CCCCOC2 (racemic) [Example 016, (rac)-1,3-dimethyl-7-(3-phenoxypropyl)-1,10,11,12,13,15-hexahydropyrazolo[4′,3′:9,10][1,6]oxazacycloundecino[8,7,6,6-hi]indole-8-carboxylic Acid] | > 3.3e-05 M | > 3.3e-05 M | > 3.3e-05 M | – | – | –
> 33 µM | 5.38e-06 M | 2.72e-06 M | > 33 µM | 0.0221 µM | – | – | – | – | Cc1c2c(nn1C)CN(C)CCCCn1c(C(=O)O)c(CCCOc3cccc4ccccc34)c3cccc-2c31 (racemic) [Example 067, (rac)-2,3,14-trimethyl-7-[3-(naphthalen-1-yloxy)propyl]-10,11,12,13,14,15-hexahydro-2H-pyrazolo[3′,4′:8,9][1,6]diazacycloundecino[10,11,1-hi]indole-8-carboxylic Acid] | > 3.3e-05 M | > 3.3e-05 M | 1.48e-05 M | – | – | –
> 33 µM | 1.31e-05 M | 1.82e-05 M | > 33 µM | 0.02 µM | – | – | – | – | CC(C)OCc1nn(C)c2c1-c1cccc3c(CCCOc4cccc5ccccc45)c(C(=O)O)n(c13)CCCN(C)C2 (racemic) [Example 1-70, (rac)-7,9-dimethyl-1-[3-(naphthalen-1-yloxy)propyl]-11-[(propan-2-yloxy)methyl]-4,5,6,7,8,9-hexahydropyrazolo[3′,4′:78][1,5]diazecino[9,10,1-hi]indole-2-carboxylic Acid] | 2.78e-05 M | > 3.3e-05 M | 1.22e-05 M | – | – | –
> 33 µM | 9.32e-06 M | 2.44e-05 M | > 33 µM | 0.0144 µM | – | – | – | – | CN1CCCCn2c(C(=O)O)c(CCCOc3cccc4ccccc34)c3cccc(c32)-c2cnn(C)c2C1 (racemic) [Example 127, (rac)-1,14-dimethyl-7-[3-(naphthalen-1-yloxy)propyl]-10,11,12,13,14,15-hexahydro-1H-pyrazolo[3′,4′:8,9][1,6]diazacycloundecino[10,11,1-hi]indole-8-carboxylic Acid] | > 3.3e-05 M | > 3.3e-05 M | > 3.3e-05 M | – | – | –
> 33 µM | > 3.3e-05 M | 2.21e-05 M | > 33 µM | 8.28 µM | – | – | – | – | COc1cc2cc(c1)-c1cccc3c(CCCOc4cccc5c4CCCC5)c(C(=O)O)n(c13)CCCCCO2 (racemic) [Example 116, (rac)-12-Methoxy-1-[3-(5,6,7,8-tetrahydronaphthalen-1-yloxy)propyl]-5,6,7,8-tetrahydro-4H-10,14-(metheno)[1,7]oxazacyclotetradecino[9,8,7-hi]indole-2-carboxylic Acid] | > 3.3e-05 M | > 3.3e-05 M | 1.79e-05 M | – | – | –
> 33 µM | 7.15e-06 M | 3.13e-05 M | > 33 µM | 0.0274 µM | – | – | – | – | Cc1ccc2cccc(OCCCc3c(C(=O)O)n4c5c(cccc35)-c3c(C)nn(C)c3COCCCC4)c2c1 (racemic) [Example 012, (rac)-1,3-dimethyl-7-{3-[(7-methyl-1-naphthyl)oxy]propyl}-1,10,11,12,13,15-hexahydropyrazolo[4′,3′:9,10][1,6]oxazacycloundecino[8,7,6-hi]indole-8-carboxylic Acid] | > 3.3e-05 M | 3.14e-05 M | 2.17e-05 M | – | – | –
– | – | – | – | 0.0829 µM | > 33 µM | 4.86e-06 M | 1.19e-05 M | 30.5 µM | CC(C)c1c2c(nn1C)CN(C)CCCn1c(C(=O)O)c(CCCOc3cccc4ccccc34)c3cccc-2c31 (single isomer, unassigned; enantiomer 2) [Example 115, 7,10-dimethyl-1-[3-(naphthalen-1-yloxy)propyl]-1-(propan-2-yl)-4,5,6,7,8,10-hexahydropyrazolo[3′,4′:7,8][1,5]diazecino[9,10,1-hi]indole-2-carboxylic Acid (Enantiomer 2)] | – | – | – | 1.49e-05 M | 1.13e-05 M | 1.9e-05 M
